Measurements taken from patent US4230879A, “15-Deoxy-16-hydroxy-16-formyo or dimethoxy-methyl-prostane derivatives of the E and F series” (American Cyanamid Company, priority 1979, dated 1980).

System: Histamine
Assay: KONZETT (Histamine)
Assay type: in vivo
Details: spasmogen histamine

Compound `CCCCC(O)(C=O)C/C=C/[C@H]1[C@H](O)CC(=O)[C@@H]1CCCCCCC(=O)O` (relative stereo) [dl-11α,16α/β-dihydroxy-9-oxo-16-formyl-13-trans-prostenoic acid] has an ED50 of 8.89 µg/kg.
